The results in this text go back to patent US20180235909A1, “Use of 1-phenyl-3-dimethylaminopropane Compounds for Treating Rheumatoid Pain” (Gruenenthal GmbH, priority 2009, published 2018).

The subject of this data set is CFA-induced chronic arthritic pain. In words: CFA-induced chronic knee joint arthritic pain in rats, weight bearing (incapacitance tester). The note with it: for Analgesic efficacy (mean percentage of maximal possible effect, weight bearing): highest possible dose without readout confounding side effects, five days post intraarticular CFA, n=10; for Side effects at higher doses: doses higher than the highest analyzed dose.

Take `CC(C)Cc1ccc(C(C)C(=O)O)cc1` (centres unmarked) [Ibuprofen]: the “Analgesic efficacy (mean percentage of maximal possible effect, weight bearing)” value reads like this: (147 mg/kg ip) 54.7% @ 147 mg/kg; (147 mg/kg ip, listed as ibuprofen) 54.7%. Besides, the “Side effects at higher doses” value (rats) is listed as “readout (weight bearing) confounding side effects”.

As to `CC[C@@H](c1cccc(O)c1)[C@@H](C)CN(C)C` [Tapentadol, (−)-(1R,2R)-3-(3-dimethylamino-1-ethyl-2-methyl-propyl)¬phenol], the “Side effects at higher doses” value (rats) was “readout (weight bearing) confounding side effects”. Besides, the “Effect on CFA-induced decrease in weight bearing” value (i.v. administration, rats, dose dependence) is on record as “significantly reduced the CFA-induced decrease in weight bearing in a dose dependent manner”.

On to `CN1CC[C@]23c4c5ccc(O)c4O[C@H]2[C@@H](O)C=C[C@H]3[C@H]1C5` [Morphine], for which the “Analgesic efficacy (mean percentage of maximal possible effect, weight bearing)” value amounted to 59.6% @ 2.15 mg/kg (2.15 mg/kg iv) and 59.6% (2.15 mg/kg iv, listed as morphine). For the same compound, the “Side effects at higher doses” value (rats) is reported as “readout (weight bearing) confounding side effects”.

On to `COc1ccc2c3c1O[C@H]1C(=O)CC[C@@]4(O)[C@@H](C2)N(C)CC[C@]314` [Oxycodone], for which the “Analgesic efficacy (mean percentage of maximal possible effect, weight bearing)” value is recorded as 46.1% @ 0.464 mg/kg (0.464 mg/kg i.v.) and 46.1% (0.464 mg/kg i.v., listed as oxycodone). For the same compound, the “Side effects at higher doses” value (rats) is listed as “readout (weight bearing) confounding side effects”.
